Consider 32 molecules from patent US20110319392A1, “Thiazole Sulfonamide And Oxazole Sulfonamide Kinase Inhibitors” (priority 2009, published 2011).

The structures appear in SMILES notation. Structures can show the parent of a compound that is named as a salt. A value given as a limit tells only on which side of the number the result lay.

The target of one test is T1, EGFR (Homo sapiens, UniProt P00533).
T1 construct: made in house; host or cells: baculovirus expression system
The experiment in a line: EGFR substrate phosphorylation assay (HTRF). The test is classed as biochemical. A digest of the protocol:
(§1)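 Baculovirus-expressed EGFR (0.8 nM) or ErbB2 (10 nM) in enzyme mix, preincubated 1 h at 20 °C with compound (0.00027–47.6 μM final), then 90 min at 20 °C with substrate mix of 20 μM ATP, 0.8 uM biotinylated Peptide C, MnCl2, MOPS pH 7.5. Phosphotyrosine by HTRF; pIC50 reported.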

A further test deals with T2, ErbB2 (Homo sapiens, UniProt P04626).
T2 construct: made in house; host or cells: baculovirus expression system
The experiment in a line: ErbB-2 substrate phosphorylation assay (HTRF). The test is classed as biochemical. Summed up:
as §1

T2 sequence (P04626 23-1255): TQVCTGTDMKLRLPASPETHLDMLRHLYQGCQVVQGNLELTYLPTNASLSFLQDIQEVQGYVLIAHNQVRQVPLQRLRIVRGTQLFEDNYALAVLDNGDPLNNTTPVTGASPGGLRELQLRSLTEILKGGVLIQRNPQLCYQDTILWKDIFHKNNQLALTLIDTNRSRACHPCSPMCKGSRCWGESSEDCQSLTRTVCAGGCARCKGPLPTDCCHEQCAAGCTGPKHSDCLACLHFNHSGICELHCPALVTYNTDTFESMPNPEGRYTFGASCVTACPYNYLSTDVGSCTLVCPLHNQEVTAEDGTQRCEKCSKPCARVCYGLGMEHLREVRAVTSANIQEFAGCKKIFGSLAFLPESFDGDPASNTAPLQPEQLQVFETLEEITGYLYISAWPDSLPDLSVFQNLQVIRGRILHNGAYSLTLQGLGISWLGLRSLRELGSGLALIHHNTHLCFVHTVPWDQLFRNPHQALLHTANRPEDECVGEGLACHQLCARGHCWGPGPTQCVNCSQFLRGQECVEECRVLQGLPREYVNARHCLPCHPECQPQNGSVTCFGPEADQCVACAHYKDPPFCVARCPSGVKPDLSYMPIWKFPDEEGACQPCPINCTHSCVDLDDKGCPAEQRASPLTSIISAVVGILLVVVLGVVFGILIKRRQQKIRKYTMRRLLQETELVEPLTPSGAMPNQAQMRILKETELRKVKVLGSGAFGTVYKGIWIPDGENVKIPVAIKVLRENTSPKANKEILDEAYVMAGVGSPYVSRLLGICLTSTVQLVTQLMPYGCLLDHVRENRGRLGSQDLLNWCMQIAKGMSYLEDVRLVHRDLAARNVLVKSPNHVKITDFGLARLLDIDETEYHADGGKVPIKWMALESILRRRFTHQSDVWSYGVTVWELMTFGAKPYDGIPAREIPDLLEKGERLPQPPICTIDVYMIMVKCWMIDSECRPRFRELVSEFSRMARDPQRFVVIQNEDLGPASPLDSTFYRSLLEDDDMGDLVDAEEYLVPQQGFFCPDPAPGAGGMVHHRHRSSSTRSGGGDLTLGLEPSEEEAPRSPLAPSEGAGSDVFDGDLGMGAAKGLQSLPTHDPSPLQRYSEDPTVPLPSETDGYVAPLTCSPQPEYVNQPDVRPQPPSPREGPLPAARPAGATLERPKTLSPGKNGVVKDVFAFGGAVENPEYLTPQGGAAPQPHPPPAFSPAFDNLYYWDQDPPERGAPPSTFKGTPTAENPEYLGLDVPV
T1 sequence (P00533 25-1210): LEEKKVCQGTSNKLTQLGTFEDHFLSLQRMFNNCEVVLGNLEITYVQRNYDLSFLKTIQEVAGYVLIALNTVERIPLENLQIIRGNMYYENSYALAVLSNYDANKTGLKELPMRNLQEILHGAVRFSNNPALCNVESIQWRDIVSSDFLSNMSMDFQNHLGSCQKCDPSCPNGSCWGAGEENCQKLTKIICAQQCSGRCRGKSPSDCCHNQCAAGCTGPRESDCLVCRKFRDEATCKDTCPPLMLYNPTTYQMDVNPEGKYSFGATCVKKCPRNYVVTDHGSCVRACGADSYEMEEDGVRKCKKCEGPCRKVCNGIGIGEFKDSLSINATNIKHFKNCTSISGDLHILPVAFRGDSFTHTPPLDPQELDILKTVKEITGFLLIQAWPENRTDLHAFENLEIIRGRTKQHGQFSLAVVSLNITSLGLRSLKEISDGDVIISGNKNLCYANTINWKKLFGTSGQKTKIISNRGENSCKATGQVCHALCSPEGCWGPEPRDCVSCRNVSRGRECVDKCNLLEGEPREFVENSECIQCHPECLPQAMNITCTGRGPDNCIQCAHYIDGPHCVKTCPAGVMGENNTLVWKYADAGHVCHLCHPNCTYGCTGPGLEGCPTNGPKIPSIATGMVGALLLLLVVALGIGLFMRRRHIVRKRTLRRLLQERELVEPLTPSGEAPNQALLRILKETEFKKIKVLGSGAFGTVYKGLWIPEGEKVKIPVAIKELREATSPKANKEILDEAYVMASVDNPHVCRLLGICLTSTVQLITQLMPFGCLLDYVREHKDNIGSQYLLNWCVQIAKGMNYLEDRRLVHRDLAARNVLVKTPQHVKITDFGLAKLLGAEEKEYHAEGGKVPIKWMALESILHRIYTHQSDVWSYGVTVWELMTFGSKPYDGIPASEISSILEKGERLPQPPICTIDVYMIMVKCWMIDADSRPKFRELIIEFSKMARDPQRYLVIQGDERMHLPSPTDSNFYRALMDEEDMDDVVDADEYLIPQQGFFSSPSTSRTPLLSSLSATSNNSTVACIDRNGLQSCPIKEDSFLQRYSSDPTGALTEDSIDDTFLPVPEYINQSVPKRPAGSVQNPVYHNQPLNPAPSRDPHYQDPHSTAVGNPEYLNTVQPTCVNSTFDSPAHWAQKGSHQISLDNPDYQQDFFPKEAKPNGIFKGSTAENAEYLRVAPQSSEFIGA

One may read the IC50 as the concentration that gives 50% inhibition. A higher IC50 goes with weaker potency in that assay. As to `CC(C)c1nc(-c2cc(F)c(F)c(NS(=O)(=O)c3cccc(F)c3)c2)c(-c2ccnc(Nc3ccc(N4CCN(CCF)CC4)c(F)c3)n2)s1` [Example 101], the half-inhibitory concentration (IC50) at EGFR was above 1 µM; against ErbB2, 0.1 to 1 µM.

As for `O=S(=O)(Nc1cc(-c2nc(N3CCOCC3)sc2-c2ccnc(Nc3ccc4c(c3)OCCO4)n2)ccc1F)c1c(F)cccc1F` [Example 127], the IC50 against EGFR and at ErbB2 was 0.1 to 1 µM in each case. Consider `CC(C)c1nc(-c2cccc(NS(=O)(=O)c3c(F)cccc3F)c2)c(-c2ccnc(Nc3ccc(N4CCOCC4)c(C(=O)O)c3)n2)s1` [Example 14, 5-({4-[4-(3-{[(2,6-Difluorophenyl)sulfonyl]amino}phenyl)-2-(1-methylethyl)-1,3-thiazol-5-yl]-2-pyrimidinyl}amino)-2-(4-morpholinyl)benzoic acid], for which the IC50 on EGFR is 0.1 to 1 µM; on ErbB2, above 1 µM.

Take `CC(C)c1nc(-c2ccc(F)c(NS(=O)(=O)c3ccccc3C#N)c2)c(-c2ccnc(Nc3ccc(N4CCOCC4)nc3)n2)s1` [Example 107]: the half-inhibitory concentration (IC50) at EGFR and at ErbB2 was 0.1 to 1 µM in each case. As to `CN1CCN(c2nc(-c3ccc(F)c(NS(=O)(=O)c4c(F)cccc4F)c3)c(-c3ccnc(Nc4ccc(N5CCOCC5)nc4)n3)s2)CC1` [Example 126], the IC50 against EGFR and against ErbB2 was 0.1 to 1 µM throughout. As for `Cc1cc(Nc2nccc(-c3sc(C(C)C)nc3-c3ccc(F)c(NS(=O)(=O)c4c(F)cccc4F)c3)n2)ccn1` [Example 116], the IC50 against EGFR and against ErbB2 was 0.1 to 1 µM in each case. Consider `CC(C)c1nc(-c2cccc(NS(=O)(=O)c3c(F)cccc3F)c2F)c(-c2ccnc(Nc3ccc(N4CCN(CCF)CC4)c(F)c3)n2)s1` [Example 29, 2,6-Difluoro-N-{2-fluoro-3-[5-[2-({3-fluoro-4-[4-(2-fluoroethyl)-1-piperazinyl]phenyl}amino)-4-pyrimidinyl]-2-(1-methylethyl)-1,3-thiazol-4-yl]phenyl}benzenesulfonamide], for which the IC50 was above 1 µM at EGFR and 0.1 to 1 µM at ErbB2.

On to `CC(C)c1nc(-c2ccnc(NS(=O)(=O)c3c(F)cccc3F)c2)c(-c2ccnc(Nc3ccc(N4CCOCC4)nc3)n2)s1` [Example 32, 2,6-Difluoro-N-{4-[2-(1-methylethyl)-5-(2-{[6-(4-morpholinyl}-3-pyridinyl]amino}-4-pyrimidinyl)-1,3-thiazol-4-yl]-2-pyridinyl}benzenesulfonamide], for which the IC50 at EGFR and against ErbB2 was above 1 µM in each case. `CC(C)c1nc(-c2cccc(NS(=O)(=O)c3c(F)cccc3F)c2F)c(-c2ccnc(Nc3ccc(N4CCOCC4)nc3)n2)s1` [Example 123]: the IC50 at EGFR and on ErbB2 was above 1 µM each time. Take `CC(=O)N1CCN(c2ccc(Nc3nccc(-c4sc(C(C)C)nc4-c4cccc(NS(=O)(=O)c5ccccc5F)c4)n3)cn2)CC1` [Example 12, N-{3-[5-(2-{[6-(4-Acetyl-1-piperazinyl)-3-pyridinyl]amino}-4-pyrimidinyl)-2-(1-methylethyl)-1,3-thiazol-4-yl]phenyl}-2-fluorobenzenesulfonamide]: the results for the IC50 against EGFR and against ErbB2 were below 0.1 µM and 0.1 to 1 µM, respectively. `CC(C)c1nc(-c2ccc(F)c(NS(=O)(=O)c3ccccc3F)c2)c(-c2ccnc(Nc3ccc(N4CCN(CCS(C)(=O)=O)CC4)c(F)c3)n2)s1` [Example 22, 2-Fluoro-N-{2-fluoro-5-[5-{2-[(3-fluoro-4-}4-[2-(methylsulfonyl)ethyl]-1-piperazinyl}phenyl)amino]-4-pyrimidinyl}-2-(1-methylethyl)-1,3-thiazol-4-yl]phenyl}benzenesulfonamide hydrochloride]: the results for the IC50 against EGFR and at ErbB2 were 0.1 to 1 µM and below 0.1 µM, respectively. Taken in the same sequence, the figures for `CCNc1nc(-c2cccc(NS(=O)(=O)c3ccccc3)c2)c(-c2ccnc(Nc3ccc(OCCN4CCCC4)c(F)c3)n2)s1` [Example 1, N-(3-(2-(Ethylamino)-5-{2-[(3-fluoro-4-[[2-(1-pyrrolidinyl)ethyl]oxy}phenyl)amino]-4-pyrimidinyl}-1,3-thiazol-4-yl)phenyl]benzenesulfonamide] were below 0.1 µM and 0.1 to 1 µM.

Regarding `CCNc1nc(-c2cccc(NS(=O)(=O)c3ccccc3)c2)c(-c2ccnc(Nc3ccc(OCCN4CCCC4)c(F)c3)n2)s1` [Example 65], the “EGFR Activity” value at EGFR is “+++ (at least one pIC50 measurement of greater than 7 against EGFR)”. In addition, at ErbB2, the IC50 is below 0.1 µM.

On to `COCCN1CCN(c2ccc(Nc3nccc(-c4sc(C(C)C)nc4-c4cccc(NS(=O)(=O)c5ccccc5)c4)n3)cn2)CC1` [Example 6, N-[3-(2-(1-Methylethyl)-5-{2-[(6-{4-[2-(methyloxy)ethyl]-1-piperazinyl}-3-pyridinyl)amino]-4-pyrimidinyl}-1,3-thiazol-4-yl)phenyl]benzenesulfonamide], for which the 50% inhibitory concentration (IC50) was above 1 µM at EGFR and 0.1 to 1 µM at ErbB2. In the case of `CC(C)c1nc(-c2ccnc(NS(=O)(=O)c3c(F)cccc3F)c2)c(-c2ccnc(Nc3ccc(N4CCN(CCF)CC4)c(F)c3)n2)s1` [Example 100], the IC50 against EGFR and on ErbB2 was above 1 µM each time.

Take `O=S1(=O)Cc2ccc(Nc3nccc(-c4sc(N5CCOCC5)nc4-c4cccc(NS(=O)(=O)c5c(F)cccc5F)c4F)n3)cc2C1` [Example 155]: the IC50 against EGFR and on ErbB2 was 0.1 to 1 µM throughout. For the molecule `O=S(=O)(Nc1cccc(-c2nc(N3CCOCC3)sc2-c2ccnc(Nc3ccc(N4CCOCC4)nc3)n2)c1F)c1c(F)cccc1F` [Example 122], the IC50 on EGFR and at ErbB2 was 0.1 to 1 µM in each case. As for `CC(C)c1nc(-c2cccc(NS(=O)(=O)c3ccco3)c2)c(-c2ccnc(Nc3ccc(N4CCOCC4)nc3)n2)s1` [Example 53], the IC50 against EGFR and on ErbB2 was above 1 µM throughout. On to `Cc1cc(Nc2nccc(-c3sc(C(C)(C)C)nc3-c3cccc(NS(=O)(=O)c4c(F)cccc4F)c3F)n2)ccn1` [Example 159], for which the results for the 50% inhibitory concentration (IC50) against EGFR and against ErbB2 were above 1 µM and 0.1 to 1 µM, respectively. On the same counts, the results for `COc1ccc(Nc2nccc(-c3sc(C(C)C)nc3-c3cccc(NS(=O)(=O)c4ccccc4)c3)n2)cc1N1CCN(CCC#N)CC1` [Example 9, N-{3-[5-(2-{[3-[4-(2-Cyanoethyl)-1-piperazinyl]-4-(methyloxy)phenyl]amino}-4-pyrimidinyl)-2-(1-methylethyl)-1,3-thiazol-4-yl]phenyl}benzenesulfonamide] are below 0.1 µM and below 0.1 µM. On the same counts, the results for `CC(C)c1nc(-c2cccc(NS(=O)(=O)c3ccccc3)c2)c(-c2ccnc(Nc3ccc(N4CCOCC4)nc3)n2)s1` [Example 8, N-{3-[2-(1-Methylethyl)-5-(2-{[6-(4-morpholinyl)-3-pyridinyl]amino}-4-pyrimidinyl)-1,3-thiazol-4-yl]phenyl}benzenesulfonamide hydrochloride] are 0.1 to 1 µM and above 1 µM. Taken in the same sequence, the figures for `O=S(=O)(Nc1cccc(-c2nc(N3CCOCC3)sc2-c2ccnc(Nc3ccc(N4CCOCC4)nc3)n2)c1Cl)c1c(F)cccc1F` [Example 146] were above 1 µM and above 1 µM.

Regarding `COc1cc(N2CCN(CCS(C)(=O)=O)CC2)c(C)cc1Nc1nccc(-c2sc(N3CCOCC3)nc2-c2cccc(NS(=O)(=O)c3c(F)cccc3F)c2)n1` [Example 128], the IC50 at EGFR and at ErbB2 was below 0.1 µM in each case.

Consider `CC(C)c1nc(-c2cccc(NS(=O)(=O)c3c(F)cccc3F)c2)c(-c2ccnc(Nc3ccc(N4CCOCC4)nc3)n2)s1` [Example 17, 2,6-Difluoro-N-{3-[2-(1-methylethyl)-5-(2-{[6-(4-morpholinyl)-3-pyridinyl]amino}-4-pyrimidinyl)-1,3-thiazol-4-yl]phenyl}benzenesulfonamide], for which the 50% inhibitory concentration (IC50) against EGFR is 0.1 to 1 µM; against ErbB2, above 1 µM.

Regarding `O=S(=O)(Nc1cc(-c2nc(N3CCOCC3)sc2-c2ccnc(Nc3ccc(N4CCOCC4)nc3)n2)ccc1F)c1c(F)cccc1F` [Example 121], the IC50 at EGFR and against ErbB2 was 0.1 to 1 µM throughout. For the molecule `CC(C)c1nc(-c2cccc(NS(=O)(=O)c3c(F)cccc3F)c2)c(-c2ccnc(Nc3ccc(N4CCN5CCOC[C@H]5C4)nc3)n2)s1` [Example 15], the half-inhibitory concentration (IC50) against EGFR and at ErbB2 was 0.1 to 1 µM in each case. On to `CC(=O)N1CCN(c2ccc(Nc3nccc(-c4sc(C(C)C)nc4-c4cccc(NS(=O)(=O)C5CCCCC5)c4)n3)cn2)CC1` [Example 39], for which the IC50 at EGFR was 0.1 to 1 µM; against ErbB2 it was above 1 µM.

For the molecule `CC(=O)N1CCN(c2ccc(Nc3nccc(-c4sc(C(C)C)nc4-c4cccc(NS(=O)(=O)c5cccc(F)c5)c4)n3)cn2)CC1` [Example 11, N-{3-[5-(2-{[6-(4-Acetyl-1-piperazinyl)-3-pyridinyl]amino}-4-pyrimidinyl)-2-(1-methylethyl)-1,3-thiazol-4-yl]phenyl}-3-fluorobenzenesulfonamide], the concentration for half-maximal inhibition (IC50) on EGFR and at ErbB2 was 0.1 to 1 µM throughout. Turning to `CC(C)c1nc(-c2ccc(F)c(NS(=O)(=O)c3c(F)cccc3F)c2)c(-c2ccnc(Nc3ccnc(N4CCOCC4)c3)n2)s1` [Example 117], the half-inhibitory concentration (IC50) on EGFR was 0.1 to 1 µM; at ErbB2, below 0.1 µM. As for `CC(C)c1nc(-c2ccc(F)c(NS(=O)(=O)c3c(F)cccc3F)c2)c(-c2ccnc(Nc3ccc(N4CCC(C#N)CC4)nc3)n2)s1` [Example 24, N-{5-[5-(2-{[6-(4-Cyano-1-piperidinyl)-3-pyridinyl]amino}-4-pyrimidinyl)-2-(1-methylethyl)-1,3-thiazol-4-yl]-2-fluorophenyl}-2,6-difluorobenzenesulfonamide], the half-maximal inhibitory concentration (IC50) against EGFR is above 1 µM; against ErbB2 it was 0.1 to 1 µM.

With `CS(=O)(=O)c1cccc(Nc2nccc(-c3sc(N4CCOCC4)nc3-c3cccc(NS(=O)(=O)c4c(F)cccc4F)c3F)n2)c1` [Example 130], the IC50 against EGFR was above 1 µM; against ErbB2, 0.1 to 1 µM.

For `CC(C)c1nc(-c2cncc(NS(=O)(=O)c3c(F)cccc3F)c2)c(-c2ccnc(Nc3ccc(N4CCOCC4)nc3)n2)s1` [Example 47], on EGFR, the IC50 is above 1 µM.
